These are literature values, as cited in patent publication US20120258972A1, “Composition and Methods for Treating Hair Loss” (priority 2011, published 2012).

Molecules are shown by their SMILES.

Data set [1] relates to men with androgenic alopecia. To be noted: ketoconazole shampoo 2% versus 2% minoxidil regimen.
The subject of the next data set is C.3H/HeN mice. The note with it: topical application.
Data set [2] addresses T1, Type II isozyme of 5-alpha reductase (Homo sapiens, UniProt P31213).
T1 sequence (P31213 1-254): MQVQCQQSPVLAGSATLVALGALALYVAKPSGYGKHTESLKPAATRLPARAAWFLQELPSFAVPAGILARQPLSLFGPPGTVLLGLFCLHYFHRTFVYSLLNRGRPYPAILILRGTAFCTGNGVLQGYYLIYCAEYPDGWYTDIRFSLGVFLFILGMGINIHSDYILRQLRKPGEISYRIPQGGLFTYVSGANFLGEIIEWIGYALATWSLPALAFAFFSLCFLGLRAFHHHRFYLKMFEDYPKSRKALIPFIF

Data set [3] deals with T2, type I isozyme of 5-alpha reductase (Homo sapiens, UniProt P18405).
T2 sequence (P18405 1-259): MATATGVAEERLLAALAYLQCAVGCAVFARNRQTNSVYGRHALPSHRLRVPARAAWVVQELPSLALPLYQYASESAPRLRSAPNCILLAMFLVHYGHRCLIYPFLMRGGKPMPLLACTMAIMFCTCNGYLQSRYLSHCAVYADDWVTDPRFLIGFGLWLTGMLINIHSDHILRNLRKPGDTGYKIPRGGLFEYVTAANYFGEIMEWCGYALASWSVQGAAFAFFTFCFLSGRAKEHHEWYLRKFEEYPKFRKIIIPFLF

For data set [4], the system named is serum dihydrotestosterone. To be noted: oral.
The next data set has as its system male pattern hair loss. To be noted: oral dutasteride 0.5 mg and 2.5 mg/day; 12 and 24 weeks.

Consider `CC(=O)N1CCN(c2ccc(OCC3COC(Cn4ccnc4)(c4ccc(Cl)cc4Cl)O3)cc2)CC1` (stereo not shown) [ketoconazole], for which the “Hair density, size, and proportion of anagen follicles” value in data set [1] is reported as “improved almost similarly”. Besides, the “Effect on hair growth in mice” value in the data set on C.3H/HeN mice is “stimulatory effect on hair growth”.
`C[C@]12C=CC(=O)N[C@@H]1CC[C@@H]1[C@@H]2CC[C@]2(C)[C@@H](C(=O)Nc3cc(C(F)(F)F)ccc3C(F)(F)F)CC[C@@H]12` [dutasteride]: the “Potency relative to finasteride at inhibiting the Type II isozyme of 5-alpha reductase” value in data set [2] is 3 times. Also, the “Potency relative to finasteride at inhibiting the type I isozyme of 5-alpha reductase” value in data set [3] is on record as “more than 100 times”. In addition, the “Decrease of serum dihydrotestosterone” value in data set [4] is “up to 90%”. In addition, in the data set on male pattern hair loss, the “Hair count compared with 5 mg/day finasteride” value is reported as “superior hair count”.
As for `CC(C)(C)NC(=O)[C@H]1CC[C@H]2[C@@H]3CC[C@H]4NC(=O)C=C[C@]4(C)[C@H]3CC[C@]12C` [finasteride], in data set [4], the “Decrease of serum dihydrotestosterone” value is given as “about 70%”.
